# Measurements published in PMC3805573, “Methylglyoxal Evokes Pain by Stimulating TRPA1” (PLoS ONE, 2013).
# Assays:
# [1] = test system: TRPA1; test: Whole cell voltage-clamp, TRPA1 CHO cells; format: cell-based; conditions: MG 0.5 mM (Fig. 1B)
# Description: (§1) DRG neurons and TRPA1 CHO cells were studied under voltage-clamp conditions using an Axopatch 200B amplifier and pClamp 10.0 software (Molecular Devices, Sunnyvale, CA). Except where stated otherwise, whole cell recordings were performed at a holding potential of –60 mV using an extracellular solution with the composition described above for [Ca^2+]i measurements. Borosilicate glass pipettes (2–5 MΩ, 75–80% series resistance compensation) were filled with (in mM) 140 KCl, 1 CaCl2, 2 MgATP, 10 EGTA, and 10 HEPES buffered to pH 7.4 (KOH). Excised inside-out patches were recorded using a Ca^2+-free solution containing (in mM) 140 NaCl, 5 KCl, 1 MgCl2, 10 HEPES and 1 EGTA, pH 7.4 (NaOH) in the pipettes and perfused with 140 KCl, 2 MgATP, 1 EGTA, and 10 HEPES (pH 7.4). DRG neurons were studied using an intracellular solution containing (in mM) 140 CsCl, 1 CaCl2, 2 MgATP, 10 EGTA and 10 HEPES, pH 7.4 (CsOH). Drugs were applied by local microperfusion with a rapid solution changer (RSC-200, Biologic, Claix, France).
# [2] = test system: MDCK cells; test: [Ca2+]i-measurements in MDCK cells; format: cell-based, Canine
# Description: MDCK cells were grown in DMEM (Invitrogen) supplemented with 5% fetal bovine serum, 100 U/ml penicillin and 100 µg/ml streptomycin. […] The experiments were performed in a physiological saline solution containing (in mM) 140 NaCl, 5 KCl, 10 glucose, 10 HEPES, 2 CaCl2, and 1 MgCl2, buffered to pH 7.4 with NaOH. Compounds were applied to cells by local continuous microperfusion of solution through a fine tube placed in close proximity of the cells studied. […] Analyses of emission intensity ratios at 340 nm/380 nm excitation (R, in individual cells) were performed using the ImageMaster suite of software. […] Cells grown in 96 well black walled plates (Costar, Tewksbury, MA) were loaded with Fura 2-AM in the presence of 1 mM probenecid at 37°C for 1–1.5 hours and assays were carried out at 25°C. Basal emission ratios (340 nm/380 nm) were measured and changes in ratio determined at various times after compound addition.
# [3] = test system: Trpa1+/+ and Trpa1-/- mice; test: Intraplantar injection, pain-related behaviors; format: in vivo; conditions: intraplantar 250 nmoles/paw
# Description: Data shown are from male and female homozygote Trpa1^− ^/− and Trpa1 ^+/+. The Trpa1-null mice and wild-type littermates were bred from heterozygotic mice provided by Drs. Kelvin Kwan and David Corey (Harvard Medical School, Boston, MA).
# Methylglyoxal (250 nmoles in 25 µl saline) was injected subcutaneously into the plantar surface of one of the hind paws using a 50 µl luer-syringe (Hamilton Co.) fitted with a 26-gauge x 3/8 inch intradermal needle. Immediately after injection, mice were placed inside a Perspex chamber and the duration of the pain-related behaviors (licking and biting or flinching and shaking of the injected paw) recorded using a digital stop-watch. Total pain response times over the first 2 minutes were used for analysis as the pain behaviors were largely confined to this period. The glyoxalase 1 inhibitor Sr-p-Bromobenzylglutathione cyclopentyl diester (50 mg/kg) was dissolved in 2% DMSO/20% Tween 80 in saline and administered by intraperitoneal (i.p.) injection (5 ml/kg).
# [4] = molecular target: T1, human TRPA1 (Homo sapiens, UniProt O75762); test: [Ca2+]i-responses in CHO cells expressing human TRPA1; format: cell-based; conditions: CHO cells expressing human TRPA1, extracellular application; read-out: EC50, increases in [Ca2+]i
# T1 construct: expressed in transfected cells; host or cells: CHO cells
# Description: (§2) Untransfected CHO cells and CHO cells expressing mouse or human TRPA1 were grown in MEM Glutamax or AQ medium supplemented with penicillin (100 U/ml), streptomycin (100 µg/ml), and FCS (10%). Plasmids encoding mutated TRPA1 channels were kindly provided by Dr. Ardem Patapoutian. All media, serum and antibiotics were from Invitrogen (Paisley, UK) or Sigma (Poole, UK).
# Cells were loaded with 2 µM Fura-2 AM (Molecular Probes, Paisley, UK) in the presence of 1 mM probenecid for ∼1 hr. The experiments were performed in a physiological saline solution containing (in mM) 140 NaCl, 5 KCl, 10 glucose, 10 HEPES, 2 CaCl2, and 1 MgCl2, buffered to pH 7.4 with NaOH. Compounds were applied to cells by local continuous microperfusion of solution through a fine tube placed in close proximity of the cells studied. Images of a group of cells were captured every 2 sec using 340 and 380 nm excitation wavelengths with emission measured at 520 nm with a microscope based imaging system (PTI, New Jersey). […]
# Changes in intracellular calcium ([Ca^2+]i) in response to agonists were determined in TRPA1 expressing CHO cells and MDCK cells using a Flexstation 3 (Molecular Devices). […] Basal emission ratios (340 nm/380 nm) were measured and changes in ratio determined at various times after compound addition.
# [5] = test system: DRG neurons; test: Voltage clamp recordings of DRG neurons; format: cell-based, mice; conditions: -60 mV, 15 µM Ca2+, a proportion of neurons
# Description: DRG neurons were prepared from adult male or female mice using methods described previously. Isolated neurons were maintained in MEM AQ (5.6 mM glucose) supplemented with 10% fetal bovine serum, 100 U/ml penicillin, 100 µg/ml streptomycin and 50 ng/ml NGF (Promega, Southampton, UK) for less than 24 hours before experimentation.
# as §1
# [6] = molecular target: T2, mTRPA1 K712Q (Mus musculus, UniProt Q8BLA8, K712Q); test: [Ca2+]i-responses of mTRPA1 K712Q in CHO cells; format: cell-based; conditions: MG 2 mM
# T2 construct: expressed in transfected cells; host or cells: CHO cells
# Description: as §2
# Cells were loaded with 2 µM Fura-2 AM (Molecular Probes, Paisley, UK) in the presence of 1 mM probenecid for ∼1 hr. The experiments were performed in a physiological saline solution containing (in mM) 140 NaCl, 5 KCl, 10 glucose, 10 HEPES, 2 CaCl2, and 1 MgCl2, buffered to pH 7.4 with NaOH. Compounds were applied to cells by local continuous microperfusion of solution through a fine tube placed in close proximity of the cells studied. Images of a group of cells were captured every 2 sec using 340 and 380 nm excitation wavelengths with emission measured at 520 nm with a microscope based imaging system (PTI, New Jersey). Analyses of emission intensity ratios at 340 nm/380 nm excitation (R, in individual cells) were performed using the ImageMaster suite of software.
# T1 sequence (O75762 whole entry): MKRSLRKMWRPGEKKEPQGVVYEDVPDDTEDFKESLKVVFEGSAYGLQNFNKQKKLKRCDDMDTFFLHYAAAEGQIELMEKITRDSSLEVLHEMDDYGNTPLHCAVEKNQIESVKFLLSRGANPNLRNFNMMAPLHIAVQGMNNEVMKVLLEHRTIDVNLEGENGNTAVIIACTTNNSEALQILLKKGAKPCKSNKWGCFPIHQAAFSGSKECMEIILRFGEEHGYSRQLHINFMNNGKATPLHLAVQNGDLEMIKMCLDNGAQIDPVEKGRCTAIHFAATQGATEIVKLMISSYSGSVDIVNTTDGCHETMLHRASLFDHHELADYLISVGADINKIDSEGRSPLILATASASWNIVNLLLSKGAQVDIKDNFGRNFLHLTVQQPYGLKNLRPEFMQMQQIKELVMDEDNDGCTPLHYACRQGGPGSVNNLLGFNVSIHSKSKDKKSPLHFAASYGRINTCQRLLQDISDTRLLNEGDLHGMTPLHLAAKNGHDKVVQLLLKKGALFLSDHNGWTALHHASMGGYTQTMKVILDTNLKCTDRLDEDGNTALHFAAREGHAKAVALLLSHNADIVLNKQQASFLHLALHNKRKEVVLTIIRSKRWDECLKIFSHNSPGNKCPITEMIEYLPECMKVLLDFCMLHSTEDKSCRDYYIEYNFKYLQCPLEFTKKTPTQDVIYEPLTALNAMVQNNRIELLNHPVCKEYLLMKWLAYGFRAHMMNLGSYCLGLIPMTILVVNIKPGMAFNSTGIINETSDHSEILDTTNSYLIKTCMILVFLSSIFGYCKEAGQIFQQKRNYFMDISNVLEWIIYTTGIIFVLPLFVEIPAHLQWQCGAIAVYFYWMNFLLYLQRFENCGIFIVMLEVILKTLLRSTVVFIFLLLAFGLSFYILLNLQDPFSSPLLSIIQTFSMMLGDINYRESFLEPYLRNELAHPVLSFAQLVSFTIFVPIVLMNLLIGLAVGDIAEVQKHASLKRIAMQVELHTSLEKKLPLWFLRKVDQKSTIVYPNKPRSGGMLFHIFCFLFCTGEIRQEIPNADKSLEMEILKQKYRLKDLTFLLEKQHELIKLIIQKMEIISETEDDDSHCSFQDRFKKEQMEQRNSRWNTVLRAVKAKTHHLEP
# T2 sequence (Q8BLA8 whole entry K712Q): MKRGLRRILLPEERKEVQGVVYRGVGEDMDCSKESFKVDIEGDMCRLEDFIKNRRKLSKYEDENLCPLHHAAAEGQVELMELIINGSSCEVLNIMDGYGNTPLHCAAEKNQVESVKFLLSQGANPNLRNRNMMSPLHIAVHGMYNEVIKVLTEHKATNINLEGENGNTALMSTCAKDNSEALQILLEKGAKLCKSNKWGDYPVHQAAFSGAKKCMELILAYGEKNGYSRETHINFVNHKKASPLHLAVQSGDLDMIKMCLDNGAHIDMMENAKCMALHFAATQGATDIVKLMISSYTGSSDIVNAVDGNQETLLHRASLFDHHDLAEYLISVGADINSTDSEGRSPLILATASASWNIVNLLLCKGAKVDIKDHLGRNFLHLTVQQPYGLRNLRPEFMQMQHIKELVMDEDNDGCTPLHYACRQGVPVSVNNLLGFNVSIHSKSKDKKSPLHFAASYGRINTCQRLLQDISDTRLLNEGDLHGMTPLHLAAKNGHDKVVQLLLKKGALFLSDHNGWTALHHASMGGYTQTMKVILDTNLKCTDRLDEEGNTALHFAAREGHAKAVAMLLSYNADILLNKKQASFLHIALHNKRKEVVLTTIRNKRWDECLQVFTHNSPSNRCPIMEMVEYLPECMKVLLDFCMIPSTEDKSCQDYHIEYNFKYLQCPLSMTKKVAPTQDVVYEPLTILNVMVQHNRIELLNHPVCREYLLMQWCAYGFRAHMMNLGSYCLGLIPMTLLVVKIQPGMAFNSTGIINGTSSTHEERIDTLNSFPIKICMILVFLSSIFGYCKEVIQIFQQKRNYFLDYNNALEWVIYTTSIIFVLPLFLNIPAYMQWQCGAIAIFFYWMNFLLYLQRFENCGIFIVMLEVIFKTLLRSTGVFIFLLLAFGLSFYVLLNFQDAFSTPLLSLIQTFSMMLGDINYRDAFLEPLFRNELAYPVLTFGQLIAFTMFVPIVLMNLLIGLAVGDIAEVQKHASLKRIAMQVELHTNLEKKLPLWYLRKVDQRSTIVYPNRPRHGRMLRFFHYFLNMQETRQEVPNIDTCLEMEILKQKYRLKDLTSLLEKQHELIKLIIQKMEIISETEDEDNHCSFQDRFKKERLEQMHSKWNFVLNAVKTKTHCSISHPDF
structure (smiles),measurement,setting,value
"CC(=O)C=O [MG, methylglyoxal]",whole cell current,[1],produced inward currents
same,[Ca2+]i-influx response,[2]; 5 mM,evoked [Ca^2+]i-influx responses
same,EC50,"[2]; read-out: EC50, [Ca2+]i-responses",2.2 ± 0.4 mM
same,pain-related behaviors during 2 min after injection,[3],induced a significant nociceptive response
same,EC50,[4],700 ± 200 µM
same,current in DRG neurons,[5],evoked robust inward currents
same,amplitude of [Ca2+]i-responses in mTRPA1 K712Q compared to WT mTRPA1,[6],significantly reduced
